Calls of active or inactive are those of the source. The rule behind the calls is not given here.
Assays:
HCC1806 [1] = experiment: Anti-proliferative activity against human HCC1806 cells assessed as cell growth inhibition incubated for 72 hrs by MTT assay; type: functional, cell-based; details: HCC1806, 72 h
MDA-MB-231 = experiment: Anti-proliferative activity against human MDA-MB-231 cells assessed as cell growth inhibition incubated for 72 hrs by MTT assay; type: functional, cell-based; details: MDA-MB-231, 72 h
HCC1806 [2] = experiment: Antitumor activity against human HCC1806 cells xenografted in Balb/c mouse at 2.5 mg/kg, ip administered once a week measured after 14 days relative to control; type: functional; details: HCC1806, 336 h, time 14 day, read-out: TGI
HCC1806 [3] = experiment: Antitumor activity against human HCC1806 cells xenografted in Balb/c mouse assessed as reduction in tumor weight at 2.5 mg/kg, ip administered once a week measured after 14 days; type: functional, organism-based; details: time 14.0 day
Hs-578T = experiment: Anti-proliferative activity against human Hs-578T cells assessed as cell growth inhibition incubated for 72 hrs by MTT assay; type: functional, cell-based

- IC50 (HCC1806 [1]): 340 nM
- IC50 (MDA-MB-231): 210 nM
Structure (SMILES): COc1cccc2c1C(=O)c1c(O)c3c(c(O)c1C2=O)C[C@@](O)(C(=O)CO)C[C@@H]3O[C@H]1C[C@H](N)[C@H](O)[C@H](C)O1 [DOXORUBICIN]
- inhibition in vivo at 2.5 mg/kg (HCC1806 [2]): 43.2%
- Activity (HCC1806 [3]): Active
- IC50 (Hs-578T): 1070 nM

From ChEMBL document CHEMBL5550161, “Discovery of novel small molecules targeting the USP21/JAK2/STAT3 axis for the treatment of triple-negative breast cancer” (Eur J Med Chem, 2024)
